Results published in patent publication US5654427A, “Indolocarbazole derivatives to treat a pathological condition of the prostate” (Kyowa Hakko Kogyo Co., Ltd., priority 1995, dated 1997).
Where two headings read alike, the source gives them in different places.

Columns and labels:
protein kinase A = details: background; cited from earlier work
protein kinase C = details: background; cited from earlier work
phosphorylase kinase = details: background; cited from earlier work
[1] = test system: myosin light-chain kinase; details: background; cited from earlier work
protein kinase G = details: background; cited from earlier work
Tsu-Pr1 = assay: growth inhibition of Tsu-Pr1 prostate cancer cells (calcein fluorescence); type: cell-based; details: Homo sapiens, TSU-Pr1, 72 h, read-out: Tsu-Pr1 IC50
Description: (§1) Throughout the experiment the Tsu-Pr1 and Du-Pro1 cells were maintained in RPMI 1640 medium (GIBCO) containing 10% fetal bovine serum (Hyclone), 2 mM glutamine, 100 U/ml penicillin, and 100 μg/ml streptomycin. The PC-3 cells were maintained in Ham's F12K medium (Irvine Scientific) containing 10% fetal bovine serum (Hyclone), 2 mM glutamine, 100 U/ml penicillin, and 100 μg/ml streptomycin. All cell lines were maintained at 37° C. in a humidified atmosphere containing 5% CO2. The DU-145 cells were maintained in minimal essential medium (Gibco), containing 10% fetal bovine serum (Hyclone), 2 mM glutamine, and no antibiotics.
(§2) Tests for growth inhibition by the candidate compounds were conducted by the following procedure. In each well of a 96-well plate (Falcon) were placed 2,500 cells in 0.1 ml of medium. The cultures were incubated overnight after which a 0.1 ml aliquot of culture medium was added to each well. […] Other control wells received medium without any K-252a derivative compounds. Incubation was continued for three days. On day three the number of cells in each well was measured using a calcein fluorescence assay (Bozyczko-Coyne et al. J. Neurosci. Meth. 50, 205-216 (1993)).
(§3) Calcein AM (Molecular Probes, Eugene, Oreg.), an analog of the viable dye fluorescein diacetate, is taken up by cells and cleaved intracellularly to fluorescent salts that are retained by intact membranes of viable cells. This method thus provides a reliable and quantitative measurement of cell survival. Calcein AM was diluted 2× in Dulbeccos phosphate buffered saline (D-PBS) to 2× the final assay concentration (6 μM) and 100 μl was added to culture wells containing 100 μl of medium. The plates were then incubated for 1 hour at 37° C. Cells were then washed 4 times with D-PBS to remove excess calcein not taken up by cells. The plate was read using a Millipore plate reading fluorimeter (Cytofluor 2350) at emission=485 nm and excitation=538 nm. After subtraction of blank values (wells containing medium but no cells), relative fluorescent values reflect a quantitative measurement of cell survival.
(§4) The number of cells in the wells containing functional derivatives was compared to the number of cells in the control wells. The concentration which inhibited cell growth by 50% was calculated and is referred to as the "IC50 ".

Du-Pro1 = assay: growth inhibition of Du-Pro1 prostate cancer cells (calcein fluorescence); type: cell-based; details: Homo sapiens, 72 h, read-out: Du-Pro1 IC50
Description: as §1, §2, §3, §4

prostate glands = assay: inhibition of prostate growth in sexually immature mice (weight of prostate glands); type: in vivo; details: for Dorsal Prostate weight: TEPBS 9.8 ± 1.6; for Coagulating Glands weight: TEPBS 25.1 ± 1.6; for Seminal Vesicles weight: TEPBS 75.0 ± 5.0
From the text: (§5) The following animal model can be used to test the efficacy of a functional derivative for treatment of a proliferative prostate condition. Sexually immature male mice of 15-20 g each (Charles River Laboratories, Raleigh, N.C.) were used in the following in vivo study. The mice were allowed at least 3 days after purchase to acclimate before being used in any experiments.
(§6) Each test group contained 12 mice. […] At the end of the 21 day dosing period the mice were sacrificed and whole body blood, dorsal prostate, ventral prostate, coagulating glands, seminal vesicles, heart, liver, stomach, lung, kidneys and testes were collected separately and weighed.

PC-3 = assay: growth inhibition of PC-3 prostate cancer cells (calcein fluorescence); type: cell-based; details: Homo sapiens, PC-3, 72 h, read-out: PC-3 IC50
Description: as §1, §2
(§7) Calcein AM (Molecular Probes, Eugene, Oreg.), an analog of the viable dye fluorescein diacetate, is taken up by cells and cleaved intracellularly to fluorescent salts that are retained by intact membranes of viable cells. This method thus provides a reliable and quantitative measurement of cell survival. Calcein AM was diluted 2× in Dulbeccos phosphate buffered saline (D-PBS) to 2× the final assay concentration (6 μM) and 100 μl was added to culture wells containing 100 μl of medium. The plates were then incubated for 1 hour at 37° C. Cells were then washed 4 times with D-PBS to remove excess calcein not taken up by cells. The plate was read using a Millipore plate reading fluorimeter (Cytofluor 2350) at emission=485 nm and excitation=538 nm. After subtraction of blank values (wells containing medium but no cells), relative fluorescent values reflect a quantitative measurement of cell survival. […]

[2] = body weight and weight of peripheral organs in sexually immature mice; details: for Body Weight: Table 4, TEPBS 31.5 ± 0.8; for Heart weight / Testes weight / Lung weight / Stomach weight / Kidney weight / Liver weight: Table 5; for Heart weight: TEPBS 171 ± 8.4; for Testes weight: TEPBS 202 ± 6; for Lung weight: TEPBS 230 ± 15.9; for Stomach weight: TEPBS 294 ± 22; for Kidney weight: TEPBS 576 ± 22; for Liver weight: TEPBS 1937 ± 75
From the text: as §5, §6

DU-145 = assay: growth inhibition of DU-145 prostate cancer cells (calcein fluorescence); type: cell-based; details: Homo sapiens, DU-145, 72 h, read-out: DU-145 C50
Description: as §1, §2, §3, §4

trkA = target: T1, trkA (Rattus norvegicus, UniProt P35739); assay: inhibition of NGF-stimulated trk autophosphorylation (tyrosine phosphorylation) in PC12 cells, anti-phosphotyrosine Western blot; type: cell-based; details: 100 nM compound, NGF 50 ng/ml; note: key: +: Inhibited phosphorylation; -: Did not inhibit phosphorylation
T1 construct: are rat pheochromocytoma cells that bear trkA; host or cells: PC12 rat pheochromocytoma cells
T1 sequence (P35739 33-799): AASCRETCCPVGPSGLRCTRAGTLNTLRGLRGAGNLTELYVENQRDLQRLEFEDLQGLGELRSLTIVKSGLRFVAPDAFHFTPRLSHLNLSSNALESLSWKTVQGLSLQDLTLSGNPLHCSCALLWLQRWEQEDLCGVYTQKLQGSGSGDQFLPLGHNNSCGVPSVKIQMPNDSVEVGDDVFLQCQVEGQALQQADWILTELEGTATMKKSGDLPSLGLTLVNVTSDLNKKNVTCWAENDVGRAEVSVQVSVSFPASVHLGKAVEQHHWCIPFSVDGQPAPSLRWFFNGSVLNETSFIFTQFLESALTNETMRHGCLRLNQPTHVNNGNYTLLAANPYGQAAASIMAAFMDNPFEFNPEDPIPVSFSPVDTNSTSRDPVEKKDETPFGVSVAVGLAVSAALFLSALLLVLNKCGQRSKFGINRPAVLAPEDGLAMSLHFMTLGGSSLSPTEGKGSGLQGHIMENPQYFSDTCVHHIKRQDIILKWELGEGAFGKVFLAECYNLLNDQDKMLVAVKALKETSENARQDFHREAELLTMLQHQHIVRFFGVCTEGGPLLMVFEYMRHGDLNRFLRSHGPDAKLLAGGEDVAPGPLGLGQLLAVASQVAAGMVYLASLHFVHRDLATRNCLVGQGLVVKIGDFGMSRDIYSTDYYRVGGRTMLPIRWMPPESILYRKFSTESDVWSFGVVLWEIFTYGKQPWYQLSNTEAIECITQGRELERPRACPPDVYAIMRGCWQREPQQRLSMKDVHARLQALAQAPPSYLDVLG
Description: Candidate compounds for the inhibition of prostate cell proliferation were selected according to their ability to inhibit the tyrosine kinase activity associated with the trks.
PC12 cells (ATCC #CRL1721) are rat pheochromocytoma cells that bear trkA and differentiate into sympathetic neurons when treated with NGF. […] Cells were incubated at 37° C. in a humidified atmosphere of 10% CO2 and 90% air. […] The cells in each culture were disrupted and cell lysates were prepared by standard techniques known to those skilled in the art. Each lysate was incubated with anti-trk antibody whereby immune complexes were formed. […] The immune complexes were collected on Protein A-Sepharose beads, separated by SDS-polyacrylamide gel electrophoresis (SDS-PAGE), and transferred to polyvinylidene difluoride (PVDF) membranes (Millipore Corp., Bedford, Mass.), using techniques well known to those skilled in the art. The membranes were incubated with anti-phosphotyrosine antibody, which binds to the tyrosine phosphorylated trks, but not to the un-phosphorylated form of trks. Proteins bound to anti-phosphotyrosine antibody were visualized with enhanced chemiluminescence (ECL, Amersham), and are shown as dark "spots" in FIG. 1.
Measurement of the autophosphorylation of trk provides a good index of trk tyrosine kinase activity, and thereby of trk stimulation.
Inhibition was indicated by the absence of a spot migrating with the trk marker shown at the left side of the figure. Partial inhibition was indicated by a spot of reduced size.

[3] = test system: androgen independent human prostate cancer cell lines Tsu-Pr1, DuPro-1, PC-3 and DU-145; assay: growth inhibition of prostate cancer-derived cell lines, overall (calcein fluorescence); type: cell-based; details: Table 3
Description: as §1, §2, §7

[4] = Table 4, 1 mg/kg s.c. daily 21 days
[5] = Table 4, 10 mg/kg s.c. daily 21 days

Row | SMILES | weight of the ventral prostates and seminal vesicles, in words (prostate glands; 1 mg/kg) | Dorsal Prostate weight (prostate glands; [4]) [mg] | Coagulating Glands weight (prostate glands; [4]) [mg] | Seminal Vesicles weight (prostate glands; [4]) [mg] | Dorsal Prostate weight (prostate glands; [5]) [mg] | Coagulating Glands weight (prostate glands; [5]) [mg] | Seminal Vesicles weight (prostate glands; [5]) [mg] | Body Weight ([2]; 1 mg/kg s.c. daily 21 days) [g] | Body Weight ([2]; 10 mg/kg s.c. daily 21 days) [g] | Heart weight ([2]; 1 mg/kg s.c. daily 21 days) [mg] | Testes weight ([2]; 1 mg/kg s.c. daily 21 days) [mg] | Lung weight ([2]; 1 mg/kg s.c. daily 21 days) [mg] | Stomach weight ([2]; 1 mg/kg s.c. daily 21 days) [mg] | Kidney weight ([2]; 1 mg/kg s.c. daily 21 days) [mg] | Liver weight ([2]; 1 mg/kg s.c. daily 21 days) [mg] | Heart weight ([2]; 10 mg/kg s.c. daily 21 days) [mg] | Testes weight ([2]; 10 mg/kg s.c. daily 21 days) [mg] | Lung weight ([2]; 10 mg/kg s.c. daily 21 days) [mg] | Stomach weight ([2]; 10 mg/kg s.c. daily 21 days) [mg] | Kidney weight ([2]; 10 mg/kg s.c. daily 21 days) [mg] | also measured
1 | COC(=O)C1(O)CC2OC1(C)n1c3ccccc3c3c4c(c5c6ccccc6n2c5c31)C(=O)NC4 (stereo not shown) [Compound I-1] | significantly reduced the weight of the ventral prostates and seminal vesicles | 6.2 ± 1.3 | 18.2 ± 2.4 | 61.4 ± 4.1 | 6.7 ± 0.7 | 18.5 ± 1.4 | 66.4 ± 5.6 | 32.2 ± 0.6 | 30.0 ± 0.6 | 164 ± 6.4 | 216 ± 6 | 229 ± 8.02 | 288 ± 10 | 598 ± 19 | 1921 ± 81 | 152 ± 6.58 | 204 ± 11 | 263 ± 14.8 | 295 ± 30 | 550 ± 18 | inhibitor of protein kinase A (protein kinase A): inhibitor; inhibitor of protein kinase C (protein kinase C): inhibitor; inhibitor of phosphorylase kinase (phosphorylase kinase): inhibitor; inhibitor of myosin light-chain kinase [1]: inhibitor; inhibitor of protein kinase G (protein kinase G): inhibitor; IC50 (Tsu-Pr1): 210 nM; IC50 (Du-Pro1): 750 nM; effect of the higher dose, in words (prostate glands; 10 mg/kg versus 1 mg/kg): did not produce any greater effect; Ventral Prostate weight (prostate glands; mouse, in vivo, sc, 1 mg/kg): 7.6 ± 0.9 mg; Ventral Prostate weight (prostate glands; mouse, in vivo, sc, 10 mg/kg): 8.6 ± 0.8 mg; IC50 (PC-3): 3400 nM; Liver weight ([2]; 10 mg/kg s.c. daily 21 days): 1765 ± 50 mg; IC50 (DU-145): 1200 nM
2 | CC12OC(CC1(O)C(=O)NCCO)n1c3ccccc3c3c4c(c5c6ccccc6n2c5c31)CNC4=O (stereo not shown) [Compound I-12] | reduced the weight of the ventral prostates and seminal vesicles | 4.7 ± 0.4 | 18.0 ± 2.4 | 54.3 ± 1.5 | 8.6 ± 1.1 | 17.6 ± 1.0 | 55.3 ± 2.2 | 32.8 ± 0.4 | 29.5 ± 1.0 | 179 ± 8.78 | 191 ± 12 | 244 ± 15.1 | 329 ± 28 | 591 ± 16 | 2120 ± 54 | 152 ± 9.60 | 187 ± 5 | 253 ± 20.9 | 270 ± 19 | 552 ± 29 | trk 100 nM (inhibition of phosphorylation) (trkA): +; potency in inhibiting prostate cell line growth, in words [3]: most potent compounds in inhibiting growth in all four cell lines; IC50 (Tsu-Pr1; 3 days incubation): 38 nM; IC50 (Du-Pro1; 3 days incubation): 310 nM; weight of the dorsal prostate, in words (prostate glands; 1 mg/kg and 10 mg/kg): only reduced after treatment with 1 mg/kg; weight of the ventral prostates and seminal vesicles, in words (prostate glands; 10 mg/kg): reduced the weight of the ventral prostates and seminal vesicles; Ventral Prostate weight (prostate glands; Table 4, 1 mg/kg s.c. daily 21 days, TEPBS 11.3 ± 0.6): 6.2 ± 0.4 mg; Ventral Prostate weight (prostate glands; Table 4, 10 mg/kg s.c. daily 21 days, TEPBS 11.3 ± 0.6): 8.4 ± 0.8 mg; IC50 (PC-3; 3 days incubation): 690 nM; Liver weight ([2]; 10 mg/kg s.c. daily 21 days): 1886 ± 84 mg; IC50 (DU-145; 3 days incubation): 750 nM
